The values below come from patent US7994182B2 (Pecsi Tudomanyegyetem, priority 2003, dated 2011).

Like-named read-outs stand apart in the source and are kept apart here.

Series [1] concerns WRL-68 human liver cell line. As to the kind of experiment: Protecting effect against hydrogen peroxide induced cell death in WRL-68 cells (MTT cell survival). To be noted: 3 hours; for IC50: read-out: IC50: concentration where the hydrogen peroxide induced cell death was inhibited by 50%; for Emax: read-out: Maximum protection. It is filed as cell-based. As to the method:
The protecting effect of 4-quinazolinone derivatives against cell death caused by hydrogen peroxide in WRL-68 human liver cell line.
The human WRL-68 cell line was obtained from American Type Culture Collection (Rockville, Md.). The one layer thick cell lines were cultured in Dulbecco's modified. Eagle medium containing 1% antibiotic-antimycotic solution and 10% fetal calf serum under humid 37° C. air containing 5% CO2. The cells were separated every three days.
The cells were transformed to a 96-well plate with 2.5×10^4 cells/well initial concentration and were cultured overnight in humid 37° C. air containing 5% CO2. The following day 0.3 mM hydrogen peroxide was added to the medium either by itself or in the presence of one of the protecting agents. Three hours later the medium was removed and 0.5% water-soluble mitochondria stain, 3-(4,5-dimethylthiazol-2-yl)-2;5-diphenyl-tetrazolium bromide (MTT^+) was added to the cells. […] The optical density was determined at 550 nm by Anthos Labtech 2010 ELISA Reader (Wien, Austria). In every experiment at least 6 parallel samples were treated and the experiments were repeated three times. Table 1 presents the concentrations (given in μM) where the hydrogen peroxide induced cell death was inhibited by 50%.

Series [2] has as its target T1, poly(ADP-ribose) polymerase enzyme isolated from rat liver (Rattus norvegicus, UniProt P27008).
T1 construct: The poly(ADP-ribose) polymerase enzyme was isolated from rat liver as described earlier; from tissue; host or cells: rat liver
As to the kind of experiment: In vitro inhibitory effect on PARP enzyme ([3H]-NAD+ incorporation). It is filed as biochemical. To be noted: 1 mM [3H]-NAD+, 15 minutes incubation. As to the method:
The In Vitro Inhibitory Effect of 4-quinazolinone Derivatives on PARP Enzyme
The poly(ADP-ribose) polymerase enzyme was isolated from rat liver as described earlier. The putative inhibitory effect of 4-quinazolinone derivatives was examined in this experiment. The activity of the PARP enzyme was determined in 130 μl solution containing 100 mM Tris-HCl buffer (pH 8.0), 10 mM MgCl2, 10% glycerol, 1.5 mM DTT, 1 mM [Adenin-2,8-^3H]-NAD^+ (4,500 cpm/nmol), 10 μg activated DNA and 10 μg histone. With or without the presence of 4-quinazolinone derivatives, the samples were incubated for 15 minutes, then the reactions were brought to stop by the addition of 8% trichloroacetic acid. After the addition of 0.5 mg albumin the samples were allowed to precipitate for 20 minutes on ice, then the insoluble substances were filtered on a glass filter, collected and washed five times with 5% perchloric acid. The protein-bound radioactivity was measured by LS-200 Beckman scintillation counter, the data is presented in μM in Table 2.

Setting [3] is: Homo sapiens, WRL68, 0.3 mM hydrogen peroxide.

The melting point is the temperature of the solid-liquid transition.

T1 sequence (P27008 whole entry): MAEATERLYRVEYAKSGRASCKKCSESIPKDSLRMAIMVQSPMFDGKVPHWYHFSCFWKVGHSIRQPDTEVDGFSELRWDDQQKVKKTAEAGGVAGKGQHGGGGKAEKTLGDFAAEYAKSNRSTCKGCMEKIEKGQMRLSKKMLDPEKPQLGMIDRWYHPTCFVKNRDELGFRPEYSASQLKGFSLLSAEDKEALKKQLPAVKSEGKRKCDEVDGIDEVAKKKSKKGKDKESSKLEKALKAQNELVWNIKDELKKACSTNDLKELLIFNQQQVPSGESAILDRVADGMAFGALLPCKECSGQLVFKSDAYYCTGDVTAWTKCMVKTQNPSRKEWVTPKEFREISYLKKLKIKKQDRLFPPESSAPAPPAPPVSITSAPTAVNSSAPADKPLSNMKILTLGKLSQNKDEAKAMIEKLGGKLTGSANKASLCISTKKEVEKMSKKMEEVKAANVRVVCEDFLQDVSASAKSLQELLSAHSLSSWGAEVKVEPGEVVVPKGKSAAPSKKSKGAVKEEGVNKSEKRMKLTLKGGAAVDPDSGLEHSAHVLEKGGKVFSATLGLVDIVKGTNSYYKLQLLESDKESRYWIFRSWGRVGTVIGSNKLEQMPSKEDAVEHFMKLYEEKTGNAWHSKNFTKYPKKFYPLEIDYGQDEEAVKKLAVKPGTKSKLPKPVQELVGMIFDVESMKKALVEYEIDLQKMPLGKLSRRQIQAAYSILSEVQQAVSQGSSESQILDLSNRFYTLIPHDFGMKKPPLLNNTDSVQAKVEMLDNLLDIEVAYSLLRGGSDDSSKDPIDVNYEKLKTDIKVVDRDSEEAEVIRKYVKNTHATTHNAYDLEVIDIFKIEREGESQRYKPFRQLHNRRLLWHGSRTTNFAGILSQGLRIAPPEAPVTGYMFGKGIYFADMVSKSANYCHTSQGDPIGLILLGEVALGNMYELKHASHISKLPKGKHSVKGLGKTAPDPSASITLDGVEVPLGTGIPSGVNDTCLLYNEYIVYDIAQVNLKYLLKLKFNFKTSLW

With `CN(C)CCSc1nc2ccccc2c(=O)[nH]1` [Compound 17a], the IC50 in series [1] (setting [3]) amounted to 0.15 µM; in series [2], 2 µM. The Emax in series [1] (setting [3]) was found to be 68%.
Molecule `CC1(C)C=C(CSc2nc3ccccc3c(=O)[nH]2)C(C)(C)N1` [Compound 13, 2-{[(2,2,5,5-Tetramethyl-2,5-dihydro-1H-pyrrol-3-yl)methyl]thio}quinazolin-4(3H)-one] returned a melting point of 150 to 151 °C.
As to `O=c1[nH]c(SCCN2CCCCC2)nc2ccccc12` [Compound 17c, 2-[(2-Piperidin-1-ylethyl)thio]quinazolin-4(3H)-one], the figures for the IC50 in series [1] (setting [3]) and in series [2] were 0.8 µM and 2.6 µM, respectively. The Emax in series [1] (setting [3]) was 62%.
In the case of `CN(C)CCCSc1nc2ccccc2c(=O)[nH]1` [Compound 17b, 2-{[3(Dimethylamino)propyl]thio}quinazolin-4(3H)-one], in series [1] (setting [3]), the IC50 is 4.8 µM and the Emax came out at 65%. Besides, the IC50 in series [2] came out at 6 µM.
Turning to `Cc1nc2ccccc2c(=O)[nH]1` [Compound 2, 2-methylquinazolin-4(3H)one, reference compound], in series [1] (setting [3]), the IC50 amounted to 4 µM and the Emax was found to be 54%.
For `Cc1nc2ccccc2c(=O)n1CC1=CC(C)(C)N([O])C1(C)C` [Compound 8, 3-[(1-Oxyl-2,2,5,5-tetramethyl-2,5-dihydro-1H-pyrrol-3-yl)methyl]-2-methylqunazolin-4(3H)-one], in series [1] (0.3 mM hydrogen peroxide), the Maximum protection is listed as 0% and the IC50 was greater than 100 µM.
In the case of `CC1(C)C=C(CSc2nc3ccccc3c(=O)[nH]2)C(C)(C)N1O` [Compound 12, 2-{[(1-Oxyl-2,2,5,5-tetramethyl-2,5-dihydro-1H-pyrrol-3-yl)methyl]thio}quinazolin-4(3H)-one], the melting point was in the range of 138 to 140 °C.
Take `O=c1[nH]c(S)nc2ccccc12` [Compound 3, 2-mercaptoquinazolin-4(3H)one, reference compound]: in series [1] (setting [3]), the IC50 came out at 70 µM and the Emax was determined as 52%.
On the same counts, the results for `CC1(C)C=C(c2nc3ccccc3c(=O)[nH]2)CC(C)(C)N1` [Compound 24, 2-(2,2,6,6-Tetramethyl-1,2,3,6-tetrahydropyridin-4-yl)quinazolin-4(3H)-one] are 12 µM and 50%.
The molecule `CC1(C)C=C(c2nc3ccccc3c(=O)[nH]2)C(C)(C)N1` [Compound 22, 2-(2,2,5,5-Tetramethyl-2,5 dihydro-1H-pyrrol-3-yl)quinazolin-4(3H)-one] returned a melting point of 254 to 256 °C.
With `CC1(C)C=C(CSC2=Nc3ccccc3C(=O)C2)CC(C)(C)N1` [Compound 15, 2-{[(2,2,6,6-Tetramethyl-1,2,3,6-tetrahydropyridin-4-yl)methyl]thio}quinolin-4(3H)-one], in series [1] (setting [3]), the IC50 worked out at 10 µM and the Emax was found to be 61%.
Regarding `CC1(C)CCCC(C)(C)N1CCSc1nc2ccccc2c(=O)[nH]1` [Compound 17d, 2-{[2-(2,2,6,6-Tetramethylpiperidin-1-yl)ethyl]thio}quinazolin-4(3H)-one], in series [1] (setting [3]), the IC50 was 0.1 µM and the Emax was 69.6%. In series [2], this molecule returned an IC50 of 1.6 µM.
`CC1(C)C=C(c2nc3ccccc3c(=O)[nH]2)C(C)(C)N1O` [Compound 21, 2-(1-Oxyl-2,2,5,5-tetramethyl-2,5-dihydro-1H-pyrrol-3-yl)quinazolin-4(3H)-one]: in series [1] (setting [3]), the IC50 is greater than 100 µM and the Emax stood at 0%.
For the molecule `CC1(C)C=C(c2nc3ccccc3c(=O)[nH]2)CC(C)(C)N1O` [Compound 23, 2-(1-Oxyl-2,2,6,6-tetramethyl-1,2,3,6-tetrahydropyridin-4-yl)quinazolin-4(3H)-one], in series [1] (setting [3]), the IC50 turned out to be 13 µM and the Emax was 50%.
On to `Cc1nc2ccccc2c(=O)n1CC1=CC(C)(C)NC1(C)C` [Compound 9, 3-[(2,2,5,5-Tetramethyl-2,5-dihydro-1H-pyrrol-3-yl)methyl]-2-methylquinazolin-4(3H)-one], for which, in series [1] (setting [3]), the IC50 is 10 µM and the Emax is 15%.
